Data published in US7652020B2, “Compounds for the treatment of inflammatory disorders” (Schering Corporation, priority 2004, dated 2010).

molecular target: T1, purified catalytic domain of recombinant human TACE (rhTACEc) (Homo sapiens, UniProt P78536, N452Q/S266A); experiment: TACE kinetic assay: cleavage of internally quenched peptide substrate SPDL-3, fluorescence; format: biochemical; details: TACE inhibitory activity, class symbols; read-out: Ki
T1 construct: Residue 215 to 477 with two mutation (S266A and N452Q) and a 6×His tail; 6xHis (C); made in house; host or cells: baculovirus/Hi5 insect cells
T1 sequence (P78536 215-477 S266A/N452Q): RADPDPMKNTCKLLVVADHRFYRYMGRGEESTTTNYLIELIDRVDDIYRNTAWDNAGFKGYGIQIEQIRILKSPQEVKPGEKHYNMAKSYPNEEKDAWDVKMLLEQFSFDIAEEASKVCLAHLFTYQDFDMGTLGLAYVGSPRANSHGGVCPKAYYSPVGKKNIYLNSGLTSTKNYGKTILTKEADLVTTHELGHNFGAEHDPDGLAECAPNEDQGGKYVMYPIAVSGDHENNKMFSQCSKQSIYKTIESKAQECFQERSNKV

| Ki | SMILES |
| --- | --- |
| > 1 µM | Cc1nnc([C@H](O)[C@@H](O)C(=O)NCC2CCN(c3ccc(F)cc3C#N)CC2)n1C [Compound 2399] |
| < 0.02 µM | C[C@@H](NC(=O)[C@H](O)[C@@H](O)C(=O)N1CCC[C@@H]1c1ccn(-c2cccc(F)c2)n1)c1ccc(-n2cccn2)cc1 [Compound 2598] |
| 0.1 to 1 µM | Cn1ccnc1[C@H](O)[C@@](C)(O)C(=O)NCC1CCN(c2ccc(F)cc2C#N)CC1 [Compound 2395] |
| < 0.02 µM | CCNc1nc([C@H]2c3ccccc3CN2C(=O)[C@H](O)[C@@H](O)C(=O)N[C@H](C)c2ccc(-n3cccn3)cc2)cs1 [Compound 2594] |
| > 1 µM | N#Cc1cc(F)ccc1N1CCC(CNC(=O)[C@H](O)[C@@H](O)c2ccccn2)CC1 [Compound 2382] |
| > 1 µM | Cn1cc(-c2ccccc2)nc1[C@H](O)[C@@H](O)C(=O)NCC1CCN(c2ccc(F)cc2C#N)CC1 [Compound 2396] |
| 0.1 to 1 µM | C[C@@H](NC(=O)[C@H](O)[C@@H](O)C(=O)N1CCNCC1)c1ccc(-n2cccn2)cc1 [Compound 2423] |
| 0.02 to 0.1 µM | C[C@@H](NC(=O)[C@](C)(O)[C@@H](O)C(=O)N1CCc2ccc(F)cc2C1)c1ccc(-n2cccn2)cc1 [Compound 2440] |
| 0.02 to 0.1 µM | CC(c1cccc(Cl)c1)N(C)C(=O)[C@H](O)[C@@H](O)C(=O)N[C@H](C)c1ccc(-n2cccn2)cc1 (some centres unmarked) [Compound 2480] |
| < 0.02 µM | CNc1nc([C@H]2CC(F)(F)CN2C(=O)[C@H](O)[C@@H](O)C(=O)N[C@H](C)c2ccc(-n3cccn3)cc2)cs1 [Compound 2567] |

Further lines, the molecule ahead of its results:

| SMILES | Ki |
| --- | --- |
| N#Cc1ccccc1N1CCC2(CC1)CC2NC(=O)[C@H](O)[C@@H](O)C(=O)N1Cc2ccccc2C1 (some centres unmarked) [Compound 2155] | > 1 µM |
| C[C@@H](NC(=O)[C@](C)(O)[C@@H](O)C(=O)N1Cc2cccnc2C1)c1ccc(-n2cccc2C#N)cc1 [Compound 2354] | 0.02 to 0.1 µM |
| CNc1ncc2c(n1)CN(C(=O)[C@H](O)[C@@H](O)C(=O)N[C@H](C)c1ccc(-n3cccn3)cc1)C2C (some centres unmarked) [Compound 2054] | < 0.02 µM |
| CNc1nc([C@H]2CCCN2C(=O)[C@H](O)[C@@H](O)C(=O)NCC2CCN(c3ccc(F)cc3C#N)CC2)cs1 [Compound 2253] | < 0.02 µM |
| C[C@@H](NC(=O)[C@H](O)[C@@H](O)C(=O)N1CCC[C@@H]1c1csc(Nc2cccnc2)n1)c1ccc(-n2cccn2)cc1 [Compound 2259] | < 0.02 µM |
| C[C@@H](NC(=O)[C@H](O)[C@@H](O)C(=O)N1CCc2nc(N)sc2C1)c1ccc(-n2cccn2)cc1 [Compound 2081] | < 0.02 µM |
| CNc1nc(C2(C)CCCN2C(=O)[C@H](O)[C@@H](O)C(=O)N[C@H](C)c2ccc(-n3cccn3)cc2)cs1 (some centres unmarked) [Compound 2244] | < 0.02 µM |
| CC#CCOc1cc([C@@H](C)NC(=O)[C@H](O)[C@@H](O)C(=O)N2Cc3cccnc3C2)ccc1-n1cccn1 [Compound 2359] | < 0.02 µM |
| C[C@@H](NC(=O)[C@H](O)[C@@H](O)C(=O)N1Cc2cncnc2C1(C)C)c1ccc(-n2cccn2)cc1 [Compound 2046] | 0.1 to 1 µM |
| N#Cc1cc(F)ccc1N1[C@@H]2CC[C@H]1CC(CNC(=O)[C@H](O)[C@@H](O)C(=O)N1CCC[C@@H]1c1ccccc1)C2 (some centres unmarked) [Compound 2148] | 0.1 to 1 µM |
| O=C(NCc1ccc(-c2ccccc2OC(F)(F)F)c[n+]1[O-])[C@H](O)[C@@H](O)C(=O)N1CCCC1 [Compound 2347] | > 1 µM |
| C[C@@H](NC(=O)[C@H](O)[C@@H](O)C(=O)N1CCC[C@@H]1c1ccn(C)n1)c1ccc(-n2cccn2)cc1 [Compound 2248] | < 0.02 µM |
| C[C@@H](NC(=O)[C@H](O)[C@@H](O)C(=O)N1CCc2[nH]ncc2C1)c1ccc(-n2cccn2)cc1 [Compound 2073] | 0.02 to 0.1 µM |
| C[C@@H](NC(=O)[C@H](O)[C@@H](O)C(=O)N1C[C@@H]2C[C@H](C1)c1cccc(=O)n1C2)c1ccc(-n2cccn2)cc1 [Compound 2097] | 0.1 to 1 µM |
| C[C@](O)(C(=O)NCC1CCN(c2ccccc2OC(F)(F)F)CC1)[C@@H](O)C(=O)N1Cc2cccnc2C1 [Compound 2038] | 0.02 to 0.1 µM |
| C[C@@H](NC(=O)[C@H](O)[C@@H](O)C(=O)N1C2CCC1c1cncnc1C2)c1ccc(-n2cccn2)cc1 (some centres unmarked) [Compound 2093] | > 1 µM |

same assay, conditions: TACE, representative compounds, numeric values; read-out: Ki

| Ki | SMILES |
| --- | --- |
| 0.0029 µM | CC#CCOc1cc([C@@H](C)NC(=O)[C@H](O)[C@@H](O)C(=O)N2CCC[C@@H]2c2csc(NC(C)C)n2)ccc1-n1cccn1 |
| 0.0027 µM | C[C@@H](NC(=O)[C@H](O)[C@@H](O)C(=O)N1CCC[C@@H]1c1ccn(-c2ccc(F)cc2)n1)c1ccc(-n2cccn2)cc1 [drawing 1320] |
| 0.0003 µM | CCNc1nc(C2c3ccccc3CCN2C(=O)[C@H](O)[C@@H](O)C(=O)N[C@H](C)c2ccc(-n3cccn3)cc2)cs1 (some centres unmarked) |
